The values that follow are results of earlier work, collected in US11963940B2, “Parenteral esmolol formulation” (AOP ORPHAN PHARMACEUTICALS AG, priority 2012, dated 2024).

A value given as a limit tells only on which side of the number the result lay.

For the data set the following is noted: after the starting dose, e.g. initial infusion.

In the case of `COC(=O)CCc1ccc(OCC(O)CNC(C)C)cc1.Cl` (stereo not shown) [esmolol, 4-[2-Hydroxy-3-[(1-methylethyl)amino]propoxy] benzenepropanoic acid methyl ester hydrochloride], the “time to steady state plasma concentration” value is no more than 5 min.
